Experimental data published in ChEMBL document CHEMBL3875218, “Bifunctional conjugates with potent inhibitory activity towards cyclooxygenase and histone deacetylase” (Bioorg Med Chem, 2017).
Active and inactive are the calls of the source. No cut-off for these calls is given here.

Key:
[1] = Cytotoxicity against human LNCAP cells assessed as cell growth inhibition after 72 hrs by MTT assay; type: functional, cell-based
[2] = system: LNCaP; test: Inhibition of HDAC in human LNCAP cells assessed as down regulation of androgen receptor expression after 24 hrs by Western blot analysis; type: cell-based
[3] = system: LNCaP; test: Inhibition of HDAC in human LNCAP cells assessed as down regulation of COX2 expression at 2 uM after 24 hrs by Western blot analysis; type: cell-based

**Q.** Which IC50 [1] does the source give for `Cc1ccc(-c2cc(C(F)(F)F)nn2-c2ccc(S(=O)(=O)NCCCCCCC(=O)NO)cc2)cc1` here?
**A.** 2.19 µM

**Q.** And the inhibition [2]?
**A.** Dose-dependent effect

**Q.** And the inhibition [3]?
**A.** Active
